Assay type in all cases: biochemical
One assay addresses T1, ZmHXK8 (Zea mays, UniProt B4FB85).
T1 construct: full length, soluble; E. coli BL21-CodonPlus(DE3)-RIL
The experiment in a line: coupled G6PDH/NADP+ assay, A340. As to conditions: 50 mM Glc, 2 mM ATP, 2 mM MgCl2, pH 8.0; product inhibition; PEP/pyruvate kinase listed in the reaction medium; read-out: ADP. From the text:
coupled G6PDH/NADP+ assay, A340 on ZmHXK8

For assay [1], the target named is T2, ZmHXK5Δ30 (Zea mays, UniProt A0A1D6MAK9).
T2 construct: N-terminal mitochondrial anchor deleted (87 nucleotides after the start codon, first 30 residues); E. coli BL21-CodonPlus(DE3)-RIL
Nature of the assay: coupled G6PDH/NADP+ assay, A340. Particulars: 2 mM MgCl2, pH 8.0. From the text: coupled G6PDH/NADP+ assay, A340 on ZmHXK5Δ30

The next assay deals with T3, ZmHXK7 (Zea mays, UniProt C0HF79).
T3 construct: full length, soluble; E. coli BL21-CodonPlus(DE3)-RIL
Nature of the assay: coupled G6PDH/NADP+ assay, A340. Particulars: 5 mM Glc, 2 mM ATP, 2 mM MgCl2, pH 8.0; product inhibition; PEP/pyruvate kinase listed in the reaction medium; read-out: ADP. From the text: coupled G6PDH/NADP+ assay, A340 on ZmHXK7

In assay [2] the target is T4, ZmHXK4Δ30 (Zea mays, UniProt K7VX77).
T4 construct: gene LOC542510; N-terminal mitochondrial anchor deleted (87 nucleotides after the start codon, first 30 residues); E. coli BL21-CodonPlus(DE3)-RIL
The experiment in a line: coupled G6PDH/NADP+ assay, A340. Particulars: 2 mM MgCl2, pH 8.0. From the text:
coupled G6PDH/NADP+ assay, A340 on ZmHXK4Δ30

Assay [3] has as its target T5, ZmHXK6Δ30 (Zea mays, UniProt A0A1D6NCX2).
T5 construct: gene LOC103651223; N-terminal mitochondrial anchor deleted (87 nucleotides after the start codon, first 30 residues); E. coli BL21-CodonPlus(DE3)-RIL
Nature of the assay: coupled G6PDH/NADP+ assay, A340. As to conditions: 2 mM MgCl2, pH 8.0. From the text:
coupled G6PDH/NADP+ assay, A340 on ZmHXK6Δ30

The target in assay [4] is T4, ZmHXK4Δ30. Nature of the assay: coupled pyruvate kinase/lactate dehydrogenase NADH assay, A340. As to conditions: read-out: Substrate / Mannose; 2 mM ATP, 2 mM MgCl2, pH 8.0. An excerpt: coupled pyruvate kinase/lactate dehydrogenase NADH assay, A340 on ZmHXK4Δ30
In assay [5] the target is T2, ZmHXK5Δ30. Described as above. As to conditions: read-out: Substrate / Mannose; 2 mM ATP, 2 mM MgCl2, pH 8.0. From the text:
coupled pyruvate kinase/lactate dehydrogenase NADH assay, A340 on ZmHXK5Δ30

For assay [6], the target named is T5, ZmHXK6Δ30. Described as above. As to conditions: read-out: Substrate / Mannose; 2 mM ATP, 2 mM MgCl2, pH 8.0. An excerpt:
coupled pyruvate kinase/lactate dehydrogenase NADH assay, A340 on ZmHXK6Δ30

Where [7] appears, read: 5 mM Glc, 2 mM ATP, product inhibition, PEP/pyruvate kinase listed in the reaction medium, read-out: ADP.
The mark [8] stands for this setting: read-out: Substrate / ATP, 5 mM Glc.
Where [9] appears, read: read-out: Substrate / Glucose, 2 mM ATP.

Take `Nc1ncnc2c1ncn2[C@@H]1O[C@H](COP(=O)(O)OP(=O)(O)O)[C@@H](O)[C@H]1O` [ADP]: the IC50 at ZmHXK8 came to 3120 ± 1140 µM; at ZmHXK5Δ30 [1] (setting [7]) it was 690 ± 150 µM; at ZmHXK7 it was 6470 ± 1140 µM; at ZmHXK4Δ30 [2] (setting [7]) it was 710 ± 150 µM; on ZmHXK6Δ30 [3] (setting [7]), 720 ± 140 µM.
Take `Nc1ncnc2c1ncn2[C@@H]1O[C@H](COP(=O)(O)OP(=O)(O)OP(=O)(O)O)[C@@H](O)[C@H]1O` [ATP]: the Km on ZmHXK5Δ30 [1] (setting [8]) was 136 ± 11.5 µM; at ZmHXK4Δ30 [2] (setting [8]) it was 135 ± 25.7 µM; on ZmHXK6Δ30 [3] (setting [8]), 199 ± 12.8 µM.
As to `OC[C@H]1OC(O)[C@H](O)[C@@H](O)[C@@H]1O` (some centres unmarked) [glucose], the Km worked out at 137 ± 20 µM on ZmHXK5Δ30 [1] (setting [9]), 196 ± 32 µM at ZmHXK4Δ30 [2] (setting [9]) and 65.9 ± 15.2 µM on ZmHXK6Δ30 [3] (setting [9]).
Consider `OC[C@H]1OC(O)[C@@H](O)[C@@H](O)[C@@H]1O` (some centres unmarked) [mannose], for which the Km on ZmHXK4Δ30 [4] is 139 ± 22.4 µM; on ZmHXK5Δ30 [5], 120 ± 33.3 µM; at ZmHXK6Δ30 [6], 48.9 ± 1.06 µM.

Values taken from publication PMC6332545, “Biochemical properties and subcellular localization of six members of the HXK family in maize and its metabolic contribution to embryo germination” (BMC Plant Biology, 2019).
